These results are taken from patent US12172983B2, “EGFR inhibitors” (Blueprint Medicines Corporation, priority 2019, dated 2024).

SMILES strings stand for the structures. Read-outs that look alike come from different tables or passages of the source.

The target of one assay is T1, EGFR (L858R T790M C797S) (Homo sapiens, UniProt P00533, C797S/L858R/T790M).
T1 construct: purchased SignalChem E10-122VG
Description: Biochemical EGFR inhibition assay (Caliper mobility shift), EGFR LRTMCS mutant. The conditions noted are these: inhibitory activity against EGFR LRTMCS mutant; apparent IC50; read-out: Ext Enz LRTMCS. In short, it runs like this: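 Caliper mobility shift read-out: product and substrate peptides separated by electrophoresis and quantified. Reactions at 25° C. taken to 10–20% peptide phosphorylation, quenched with 35 mM EDTA. Apparent IC50 from percent activity vs log [compound].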

Assay [1] has as its system phosphorylation of EGFR (Tyr1068) in NCI-H1975 cell line that harbors the EGFR L858R T790M mutations. As to the kind of experiment: NCI-H1975 pEGFR AlphaLISA assay. Format: cell-based. The conditions noted are these: 4-5 hours incubation, read-out: Ext pEGFR H1975. In short, it runs like this:
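Phospho-EGFR Tyr1068 AlphaLISA readout: lysates taken from compound-treated H1975 cells (L858R T790M EGFR) after a 4-5 h exposure at 37 °C. Cells had adhered overnight beforehand. IC50 derived by plotting % pEGFR inhibition against log compound concentration.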
For orientation: In Alpha technology, singlet oxygen from a donor bead excites a nearby acceptor bead.

The mark [2] stands for this setting: Homo sapiens, NCI-H1975, inhibition of phosphorylation of mutant EGFR in NCI-H1975 cells.
Where [3] appears, read: inhibition of phosphorylation of mutant EGFR in NCI-H1975 cells.

T1 sequence (P00533 25-1210 T790M/C797S/L858R): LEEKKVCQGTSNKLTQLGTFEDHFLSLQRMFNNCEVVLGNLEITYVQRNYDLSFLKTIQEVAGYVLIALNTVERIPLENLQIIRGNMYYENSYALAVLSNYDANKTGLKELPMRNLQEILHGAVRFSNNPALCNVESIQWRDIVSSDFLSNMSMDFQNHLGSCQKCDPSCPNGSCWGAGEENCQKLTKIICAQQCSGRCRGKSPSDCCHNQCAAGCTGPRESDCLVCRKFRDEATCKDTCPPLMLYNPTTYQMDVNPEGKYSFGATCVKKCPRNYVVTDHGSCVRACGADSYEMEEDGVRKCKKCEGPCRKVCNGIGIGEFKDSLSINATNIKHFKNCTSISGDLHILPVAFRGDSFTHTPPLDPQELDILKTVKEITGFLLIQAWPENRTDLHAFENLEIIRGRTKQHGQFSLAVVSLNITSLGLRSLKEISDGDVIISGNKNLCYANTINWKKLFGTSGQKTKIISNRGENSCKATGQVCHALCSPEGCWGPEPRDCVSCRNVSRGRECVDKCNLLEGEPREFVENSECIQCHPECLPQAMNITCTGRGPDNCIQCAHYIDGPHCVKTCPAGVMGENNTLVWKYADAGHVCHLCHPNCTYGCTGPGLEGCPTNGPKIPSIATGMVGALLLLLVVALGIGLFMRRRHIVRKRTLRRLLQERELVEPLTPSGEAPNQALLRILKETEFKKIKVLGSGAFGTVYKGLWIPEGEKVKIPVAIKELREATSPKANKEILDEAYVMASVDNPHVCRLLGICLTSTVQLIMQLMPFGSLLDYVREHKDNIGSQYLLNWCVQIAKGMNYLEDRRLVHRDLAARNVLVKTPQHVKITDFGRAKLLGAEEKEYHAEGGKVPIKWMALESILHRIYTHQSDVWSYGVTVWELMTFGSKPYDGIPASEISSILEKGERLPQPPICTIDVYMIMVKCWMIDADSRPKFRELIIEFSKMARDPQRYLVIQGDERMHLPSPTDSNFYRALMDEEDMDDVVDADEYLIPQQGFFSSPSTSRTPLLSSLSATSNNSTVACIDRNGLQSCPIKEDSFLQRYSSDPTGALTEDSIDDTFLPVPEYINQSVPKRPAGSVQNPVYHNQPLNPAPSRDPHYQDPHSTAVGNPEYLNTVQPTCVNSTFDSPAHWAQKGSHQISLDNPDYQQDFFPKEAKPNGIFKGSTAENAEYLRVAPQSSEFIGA

For the molecule `CC(C)c1ccc(N2C[C@H](CS(C)(=O)=O)[C@H]2C)c2cnc(Nc3ccnc(N4CC[C@@H](OCCN)[C@@](C)(F)C4)n3)cc12` [Compound 241, N-{2-[(3S,4R)-4-(2-aminoethoxy)-3-fluoro-3-methylpiperidin-1-yl]pyrimidin-4-yl}-8-[(2R,3S)-3-(methanesulfonylmethyl)-2-methylazetidin-1-yl]-5-(propan-2-yl)isoquinolin-3-amine], the IC50 at EGFR (L858R T790M C797S) is ≤ 15 nM; in assay [1] (setting [2]), 10.1 to 20 nM.
As for `CCS(=O)(=O)CC1CN(c2ccc(C(C)C)c3cc(Nc4cnnc(N5CC[C@H](OC)[C@H](F)C5)n4)ncc23)C1` [Compound 281, 8-{3-[(ethanesulfonyl)methyl]azetidin-1-yl}-N-{3-[(3R,4S)-3-fluoro-4-methoxypiperidin-1-yl]-1,2,4-triazin-5-yl}-5-(propan-2-yl)isoquinolin-3-amine], the IC50 at EGFR (L858R T790M C797S) was ≤ 15 nM; in assay [1] (setting [2]) it was ≤ 10 nM.
`CC(C)c1ccc(N2C[C@H](CS(C)(=O)=O)[C@H]2C)c2cnc(Nc3ccnc(N4CC[C@@H](OCCO)[C@@](C)(F)C4)n3)cc12` (single isomer, unassigned) [Compound 242]: the IC50 is ≤ 15 nM at EGFR (L858R T790M C797S) and ≤ 10 nM in assay [1] (setting [2]).
Take `CC(C)c1ccc(N2CC(CS(C)(=O)=O)C2)c2cnc(Nc3ccnc(N4CC[C@H](OCCO)[C@H](F)C4)n3)cc12` [Compound 290, 2-{[(3R,4S)-3-fluoro-1-[4-({8-[3-(methanesulfonylmethyl)azetidin-1-yl]-5-(propan-2-yl)isoquinolin-3-yl}amino)pyrimidin-2-yl]piperidin-4-yl]oxy}ethan-1-ol]: the figures for the IC50 (on EGFR (L858R T790M C797S); in assay [1] (setting [2])) were ≤ 15 nM and ≤ 10 nM, respectively.
For `CC(C)c1ccc(N2CC(CS(C)(=O)=O)C2)c2cnc(Nc3ccnc(N4CC[C@@H](OCCO)[C@@H](F)C4)n3)cc12` [Compound 205, 2-{[(3S,4R)-3-fluoro-1-[4-({8-[3-(methanesulfonylmethyl)azetidin-1-yl]-5-(propan-2-yl)isoquinolin-3-yl}amino)pyrimidin-2-yl]piperidin-4-yl]oxy}ethan-1-ol] the same measures were ≤ 15 nM and ≤ 10 nM.
For `CO[C@@H]1CN(c2nccc(Nc3cc4c(C(C)C)ccc(N5C[C@H](CS(C)(=O)=O)[C@H]5C)c4cn3)n2)C[C@H](F)[C@@H]1O` (single isomer, unassigned) [Compound 204, (3S,4R,5R)-3-fluoro-1-[4-({8-[(2R,3S)-3-(methanesulfonylmethyl)-2-methylazetidin-1-yl]-5-(propan-2-yl)isoquinolin-3-yl}amino)pyrimidin-2-yl]-5-methoxypiperidin-4-ol or (3R,4S,5S)-3-fluoro-1-[4-({8-[(2R,3S)-3-(methanesulfonylmethyl)-2-methylazetidin-1-yl]-5-(propan-2-yl)isoquinolin-3-yl}amino)pyrimidin-2-yl]-5-methoxypiperidin-4-ol], the IC50 at EGFR (L858R T790M C797S) is ≤ 15 nM; in assay [1] (setting [2]), ≤ 10 nM.
On to `CO[C@@H]1CCN(c2nccc(Nc3cc4c(C(C)C)cnc(N5CC(CS(C)(=O)=O)C5)c4cn3)n2)C[C@]1(C)F` (single isomer, unassigned) [Compound 143], for which the results for the IC50 (at EGFR (L858R T790M C797S); in assay [1] (setting [2])) were ≤ 15 nM and ≤ 10 nM, respectively.
As for `CC(C)c1ccc(N2CC(CS(C)(=O)=O)C2)c2cnc(Nc3ccnc(N4CC[C@](C)(O)C[C@@H]4C)n3)cc12` (single isomer, unassigned) [Compound 45, (2S,4S)-1-[4-({8-[3-(methanesulfonylmethyl)azetidin-1-yl]-5-(propan-2-yl)isoquinolin-3-yl}amino)pyrimidin-2-yl]-2,4-dimethylpiperidin-4-ol or (2R,4R)-1-[4-({8-[3-(methanesulfonylmethyl)azetidin-1-yl]-5-(propan-2-yl)isoquinolin-3-yl}amino)pyrimidin-2-yl]-2,4-dimethylpiperidin-4-ol], the values for the IC50 (on EGFR (L858R T790M C797S); in assay [1] (setting [3])) were ≤ 15 nM and 10.1 to 20 nM, respectively.
As to `CC(C)c1cnc(N2C[C@H](CS(C)(=O)=O)[C@H]2C)c2cnc(Nc3ccnc(N4CC[C@H](OCC(C)(C)O)[C@H](F)C4)n3)cc12` [Compound 259, 1-{[(3R,4S)-3-fluoro-1-[4-({8-[(2R,3S)-3-(methanesulfonylmethyl)-2-methylazetidin-1-yl]-5-(propan-2-yl)-2,7-naphthyridin-3-yl}amino)pyrimidin-2-yl]piperidin-4-yl]oxy}-2-methylpropan-2-ol], the results for the IC50 (on EGFR (L858R T790M C797S); in assay [1] (setting [2])) were ≤ 15 nM and ≤ 10 nM, respectively.
Regarding `CC(C)c1ccc(N2CC(CS(C)(=O)=O)C2)c2cnc(Nc3cnnc(N4CCC5(CCO5)CC4)n3)cc12` [Compound 42, 8-[3-(methanesulfonylmethyl)azetidin-1-yl]-N-(3-{1-oxa-7-azaspiro[3.5]nonan-7-yl}-1,2,4-triazin-5-yl)-5-(propan-2-yl)isoquinolin-3-amine], the results for the IC50 (at EGFR (L858R T790M C797S); in assay [1] (setting [2])) were ≤ 15 nM and 10.1 to 20 nM, respectively.
As to `CC(C)c1cnc(N2CC(CS(C)(=O)=O)C2)c2cnc(Nc3ccnc(N4C[C@H]5COC[C@H]5C4)n3)cc12` [Compound 14, N-{2-[(3aR,6aS)-hexahydro-1H-furo[3,4-c]pyrrol-5-yl]pyrimidin-4-yl}-8-[3-(methanesulfonylmethyl)azetidin-1-yl]-5-(propan-2-yl)-2,7-naphthyridin-3-amine or N-{2-[(3aS,6aR)-hexahydro-1H-furo[3,4-c]pyrrol-5-yl]pyrimidin-4-yl}-8-[3-(methanesulfonylmethyl)azetidin-1-yl]-5-(propan-2-yl)-2,7-naphthyridin-3-amine], the IC50 fell in the range of 15.1 to 20 nM at EGFR (L858R T790M C797S) and 30.1 to 50 nM in assay [1] (setting [3]).
For `CC(C)c1ccc(N2CC(CS(C)(=O)=O)C2)c2cnc(Nc3ccnc(N4CC[C@@](C)(O)[C@@H](F)C4)n3)cc12` (single isomer, unassigned) [Compound 56], the IC50 is ≤ 15 nM on EGFR (L858R T790M C797S) and 10.1 to 20 nM in assay [1] (setting [2]).
Turning to `CO[C@@H]1CCN(c2nccc(Nc3cc4cccc(N5C[C@H](CS(C)(=O)=O)[C@H]5C)c4cn3)n2)C[C@@H]1F` [Compound 5, N-{2-[(3S,4R)-3-fluoro-4-methoxypiperidin-1-yl]pyrimidin-4-yl}-8-[(2R,3S)-3-(methanesulfonylmethyl)-2-methylazetidin-1-yl]isoquinolin-3-amine], the IC50 at EGFR (L858R T790M C797S) was ≤ 15 nM; in assay [1] (setting [2]) it was 10.1 to 20 nM.
In the case of `CCS(=O)(=O)C[C@H]1CN(c2ccc(C(C)C)c3cc(Nc4ccnc(N5CC[C@@H](OC)[C@@H](O)C5)n4)ncc23)[C@@H]1C` (single isomer, unassigned) [Compound 176, (3S,4R)-1-[4-({8-[(2R,3S)-3-[(ethanesulfonyl)methyl]-2-methylazetidin-1-yl]-5-(propan-2-yl)isoquinolin-3-yl}amino)pyrimidin-2-yl]-4-methoxypiperidin-3-ol, or (3R,4S)-1-[4-({8-[(2R,3S)-3-[(ethanesulfonyl)methyl]-2-methylazetidin-1-yl]-5-(propan-2-yl)isoquinolin-3-yl}amino)pyrimidin-2-yl]-4-methoxypiperidin-3-ol], the IC50 at EGFR (L858R T790M C797S) is ≤ 15 nM; in assay [1] (setting [2]) it was ≤ 10 nM.
